Molecules are shown by their SMILES. Where a name gives a salt, the structure may show the parent alone.

Holding throughout (experiment): biochemical
The target in experiment [1] is T1, α-1A adrenoreceptor (rat submaxillary gland) (Rattus norvegicus, UniProt P43140).
T1 sequence (P43140 1-466): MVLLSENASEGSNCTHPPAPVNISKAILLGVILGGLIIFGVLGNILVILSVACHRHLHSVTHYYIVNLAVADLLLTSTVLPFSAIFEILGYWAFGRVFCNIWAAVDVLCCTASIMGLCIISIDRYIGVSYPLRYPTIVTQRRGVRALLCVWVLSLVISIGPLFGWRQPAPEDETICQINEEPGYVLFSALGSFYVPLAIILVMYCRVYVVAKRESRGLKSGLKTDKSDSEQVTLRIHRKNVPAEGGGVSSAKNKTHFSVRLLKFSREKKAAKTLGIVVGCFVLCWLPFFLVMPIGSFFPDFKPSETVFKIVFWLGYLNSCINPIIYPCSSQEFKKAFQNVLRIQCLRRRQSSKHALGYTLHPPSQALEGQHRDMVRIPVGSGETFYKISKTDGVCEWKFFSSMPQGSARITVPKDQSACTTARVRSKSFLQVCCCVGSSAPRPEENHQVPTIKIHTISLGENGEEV
Type of experiment: binding. Particulars: [3H]-prazosin radioligand; rat submaxillary gland membranes; read-out: Radioligand Binding (Ki, nM) 1A (Rat). In a few lines:
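Radioligand binding to α-1A sites in membrane homogenates of rat submaxillary gland, run after Greengrass and Bremner. Bound radioactivity counted by liquid scintillation.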

Another experiment deals with T2, α-1a adrenoreceptor (Bos taurus, UniProt P18130).
T2 sequence (P18130 1-466): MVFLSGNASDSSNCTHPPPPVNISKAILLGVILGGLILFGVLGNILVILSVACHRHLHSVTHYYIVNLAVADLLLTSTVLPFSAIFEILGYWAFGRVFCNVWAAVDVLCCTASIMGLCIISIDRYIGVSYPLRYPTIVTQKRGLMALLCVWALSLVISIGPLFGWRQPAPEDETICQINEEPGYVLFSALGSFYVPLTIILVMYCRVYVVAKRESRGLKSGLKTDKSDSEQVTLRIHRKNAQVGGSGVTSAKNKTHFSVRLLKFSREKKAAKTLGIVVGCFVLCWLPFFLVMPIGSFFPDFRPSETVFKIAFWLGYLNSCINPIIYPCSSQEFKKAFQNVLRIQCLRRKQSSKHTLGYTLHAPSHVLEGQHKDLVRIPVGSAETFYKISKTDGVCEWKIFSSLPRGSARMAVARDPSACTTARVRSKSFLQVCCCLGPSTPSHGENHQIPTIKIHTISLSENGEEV
The class given is binding, bovine. Particulars: [3H]-prazosin radioligand; cloned receptor in LTK cell membranes; read-out: Radioligand Binding (Ki, nM) 1a (Bovine). In a few lines:
(§1)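 LTK mouse fibroblasts stably transfected with α-1a, α-1b or α-1d cDNA → roller-bottle culture 5 days at 37 °C → membranes in 50 mM Tris-HCl, stored at -70 °C → radioligand binding → scintillation counting.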

Another experiment has as its target T3, α-1b adrenoreceptor (Mesocricetus auratus, UniProt P18841).
T3 sequence (P18841 1-515): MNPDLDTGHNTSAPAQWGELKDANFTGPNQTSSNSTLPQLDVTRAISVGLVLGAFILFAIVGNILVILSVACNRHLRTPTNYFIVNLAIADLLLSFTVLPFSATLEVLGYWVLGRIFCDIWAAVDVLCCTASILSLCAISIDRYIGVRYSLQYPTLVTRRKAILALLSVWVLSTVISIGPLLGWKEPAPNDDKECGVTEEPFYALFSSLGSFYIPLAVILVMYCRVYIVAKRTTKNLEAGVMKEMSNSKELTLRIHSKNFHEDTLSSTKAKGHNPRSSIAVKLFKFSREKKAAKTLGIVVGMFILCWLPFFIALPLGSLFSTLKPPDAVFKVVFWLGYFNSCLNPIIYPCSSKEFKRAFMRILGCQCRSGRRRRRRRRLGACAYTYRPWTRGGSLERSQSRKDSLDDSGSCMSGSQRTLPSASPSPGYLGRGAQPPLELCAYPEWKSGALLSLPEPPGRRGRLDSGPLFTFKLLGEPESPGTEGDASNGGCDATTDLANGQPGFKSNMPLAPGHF
Type of experiment: binding, hamster. Particulars: [3H]-prazosin radioligand; cloned receptor in LTK cell membranes; read-out: Radioligand Binding (Ki, nM) 1b (Hamster). In a few lines: as §1

The next experiment concerns the target T4, α-1d adrenoreceptor (Rattus norvegicus, UniProt P23944).
T4 sequence (P23944 1-561): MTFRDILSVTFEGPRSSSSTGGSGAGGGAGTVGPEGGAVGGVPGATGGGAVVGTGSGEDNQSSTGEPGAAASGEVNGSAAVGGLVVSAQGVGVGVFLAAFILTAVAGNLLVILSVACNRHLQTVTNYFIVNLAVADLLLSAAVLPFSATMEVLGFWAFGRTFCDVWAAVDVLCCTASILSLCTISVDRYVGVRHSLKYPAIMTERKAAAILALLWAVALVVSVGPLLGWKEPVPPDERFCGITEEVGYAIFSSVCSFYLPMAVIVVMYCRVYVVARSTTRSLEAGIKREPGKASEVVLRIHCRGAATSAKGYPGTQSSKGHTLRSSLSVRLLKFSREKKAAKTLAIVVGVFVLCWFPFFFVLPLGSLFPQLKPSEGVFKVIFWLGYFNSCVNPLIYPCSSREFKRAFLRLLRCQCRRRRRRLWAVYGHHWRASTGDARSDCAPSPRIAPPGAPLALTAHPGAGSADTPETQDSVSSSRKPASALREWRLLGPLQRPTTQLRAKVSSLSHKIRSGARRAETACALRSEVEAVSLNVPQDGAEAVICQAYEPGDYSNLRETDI
Type of experiment: binding. Particulars: [3H]-prazosin radioligand; cloned receptor in LTK cell membranes; read-out: Radioligand Binding (Ki, nM) 1d (Rat). Summed up:
as §1

`COc1cccc2c1[C@@H]1CN(CCCCn3c(=O)[nH]c4c(sc5nccnc54)c3=O)C[C@@H]1CO2` [Example 15, 3-[4-((3aR,9bR)-cis-9-Methoxy-1,2,3,3a,4,9b-hexahydro-[1]-benzopyrano[3,4-c]pyrrol-2-yl)butyl]-pyrazino[2',3':4,5]thieno[3,2-d]pyrimidine-2,4(1H,3H)-dione dihydrochloride]: the Ki – broadly, the equilibrium dissociation constant of an inhibitor or competing ligand from its target – was 0.227 nM in experiment [1], 0.068 nM on α-1a adrenoreceptor, 4.41 nM at α-1b adrenoreceptor and 0.928 nM on α-1d adrenoreceptor.

With `COc1cccc2c1[C@@H]1CN(CCCCn3c(=O)[nH]c4c(sc5ncc(Cl)nc54)c3=O)C[C@@H]1CO2` [Example 16, 3-[4-((3aR,9bR)-cis-9-Methoxy-1,2,3,3a,4,9b-hexahydro-[1]-benzopyrano[3,4-c]pyrrol-2-yl)butyl]-8-chloro-pyrazino[2',3':4,5]thieno[3,2-d]pyrimidine-2,4(1H,3H)-dione hydrochloride], the Ki in experiment [1] is 0.373 nM; on α-1a adrenoreceptor, 0.073 nM; on α-1b adrenoreceptor, 8.64 nM; on α-1d adrenoreceptor it was 0.729 nM.

As to `COc1cccc2c1[C@@H]1CN(CCCCn3c(=O)[nH]c4c(sc5c(Cl)ccnc54)c3=O)C[C@H]1CO2` [Example 19, 3-[4-((3aS,9bR)-trans-9-Methoxy-1,2,3,3a,4,9b-hexahydro-[1]-benzopyrano[3,4-c]pyrrol-2-yl)butyl]-6-chloro-pyrido[2',3':4,5]thieno[3,2-d]pyrimidine-2,4(1H,3H)-dione hydrochloride], the Ki in experiment [1] came out at 0.059 nM; on α-1a adrenoreceptor, 0.025 nM; on α-1b adrenoreceptor it was 1.13 nM; at α-1d adrenoreceptor, 0.108 nM.

As to `COc1cccc2c1[C@@H]1CN(CCCCn3c(=O)[nH]c4c(sc5c(Cl)ccnc54)c3=O)C[C@@H]1CO2` [Example 20, 3-[4-((3aR,9bR-cis-9-Methoxy-1,2,3,3a,4,9b-hexahydro-[1]-benzopyrano[3,4-c]pyrrol-2-yl)butyl]-6-chloro-pyrido[2',3':4,5]thieno[3,2-d]pyrimidine-2,4(1H,3H)-dione hydrochloride], the inhibition constant Ki in experiment [1] came out at 0.208 nM; at α-1a adrenoreceptor, 0.038 nM; at α-1b adrenoreceptor it was 3.5 nM; at α-1d adrenoreceptor, 0.439 nM.

In the case of `COc1cccc2c1[C@@H]1CN(CCCCn3c(=O)[nH]c4c(sc5ccccc54)c3=O)C[C@H]1CO2` [Example 21, 3-[4-((3aS,9bR)-trans-9-Methoxy-1,2,3,3a,4,9b-hexahydro-[1]-benzopyrano[3,4-c]pyrrol-2-yl)butyl]-[1]benzthieno[3,2-d]pyrimidine-2,4(1H,3H)-dione hydrochloride], the Ki in experiment [1] is 0.03 nM; on α-1a adrenoreceptor, 0.018 nM; on α-1b adrenoreceptor, 0.326 nM; at α-1d adrenoreceptor it was 0.03 nM.

For `COc1cccc2c1[C@@H]1CN(CCCCn3c(=O)[nH]c4c(sc5ccccc54)c3=O)C[C@@H]1CO2` [Example 22, 3-[4-((3aR,9bR)-cis-9-Methoxy-1,2,3,3a,4,9b-hexahydro-[1]-benzopyrano[3,4-c]pyrrol-2-yl)butyl]-[1]benzthieno[3,2-d]pyrimidine-2,4(1H,3H)-dione hydrochloride], the Ki in experiment [1] amounted to 0.196 nM; at α-1a adrenoreceptor, 0.031 nM; at α-1b adrenoreceptor it was 1.16 nM; on α-1d adrenoreceptor it was 0.138 nM.

For `COc1cccc2c1[C@@H]1CN(CCCCCn3c(=O)[nH]c4c(sc5ccccc54)c3=O)C[C@H]1CO2` [Example 23, 3-[5-((3aS,9bR)-trans-9-Methoxy-1,2,3,3a,4,9b-hexahydro-[1]-benzopyrano[3,4-c]pyrrol-2-yl)pentyl]-[1]benzthieno[3,2-d]pyrimidine-2,4(1H,3H)-dione hydrochloride], the inhibition constant Ki in experiment [1] is 0.743 nM; at α-1a adrenoreceptor it was 0.046 nM; at α-1b adrenoreceptor it was 0.973 nM; on α-1d adrenoreceptor it was 0.639 nM.

In the case of `COc1cccc2c1[C@@H]1CN(CCCCCn3c(=O)[nH]c4c(sc5ccccc54)c3=O)C[C@@H]1CO2` [Example 24, 3-[5-((3aR,9bR)-cis-9-Methoxy-1,2,3,3a,4,9b-hexahydro-[1]-benzopyrano[3,4-c]pyrrol-2-yl)pentyl]-[1]benzthieno[3,2-d]pyrimidine-2,4(1H,3H)-dione hydrochloride], the Ki in experiment [1] worked out at 5.37 nM; at α-1a adrenoreceptor it was 0.616 nM; at α-1b adrenoreceptor, 5.56 nM; on α-1d adrenoreceptor, 4.51 nM.

Take `COc1cnc2c(c1)sc1c(=O)n(CCCCN3C[C@H]4COc5cccc(OC)c5[C@@H]4C3)c(=O)[nH]c12` [Example 27, 3-[4-((3aS,9bR)-trans-9-Methoxy-1,2,3,3a,4,9b-hexahydro-[1]-benzopyrano[3,4-c]pyrrol-2-yl)butyl]-7-methoxy-pyrido[2',3':4,5]thieno[3,2-d]pyrimidine-2,4(1H,3H)-dione hydrochloride]: the Ki in experiment [1] was 0.121 nM; on α-1a adrenoreceptor, 0.044 nM; at α-1b adrenoreceptor it was 0.974 nM; at α-1d adrenoreceptor, 0.094 nM.

For the molecule `COc1cccc2c1[C@@H]1CN(CCCCn3c(=O)[nH]c4c(sc5ccc(-c6ccccc6)nc54)c3=O)C[C@H]1CO2` [Example 52, 3-[4-((3aS,9bR)-trans-9-Methoxy-1,2,3,3a,4,9b-hexahydro-[1]-benzopyrano[3,4-c]pyrrol-2-yl)butyl]-8-phenyl-pyrido[2',3':4,5]thieno[3,2-d]pyrimidine-2,4(1H,3H)-dione dihydrochloride], the Ki in experiment [1] stood at 3.98 nM; at α-1a adrenoreceptor it was 1.08 nM; on α-1b adrenoreceptor, 13.6 nM; at α-1d adrenoreceptor, 0.597 nM.

For `COc1cnc2sc3c(=O)n(CCCCN4C[C@H]5COc6cccc(OC)c6[C@@H]5C4)c(=O)[nH]c3c2c1` [Example 55, 3-[4-((3aS,9bR)-trans-9-Methoxy-1,2,3,3a,4,9b-hexahydro-[1]-benzopyrano[3,4-c]pyrrol-2-yl)butyl]-8-methoxy-pyrido[3',2':4,5]thieno[3,2-d]pyrimidine-2,4(1H,3H)-dione hydrochloride], the Ki in experiment [1] came out at 0.111 nM; on α-1a adrenoreceptor it was 0.103 nM; at α-1b adrenoreceptor, 1.46 nM; on α-1d adrenoreceptor, 0.02 nM.

`COc1cccc2c1[C@@H]1CN(CCCCn3c(=O)[nH]c4c(sc5ccc(-c6cccnc6)nc54)c3=O)C[C@@H]1CO2` [Example 56, 3-[4-((3aR,9bR)-cis-9-Methoxy-1,2,3,3a,4,9b-hexahydro-[1]-benzopyrano[3,4-c]pyrrol-2-yl)butyl]-8-(3-pyridyl)-pyrido[2',3';4,5]thieno[3,2-d]pyrimidine-2,4(1H,3H)-dione dihydrochloride]: the Ki in experiment [1] is 0.614 nM; at α-1a adrenoreceptor, 0.078 nM; at α-1b adrenoreceptor it was 10.2 nM; at α-1d adrenoreceptor, 1.31 nM.

The record behind these values is EP0942911B1, “BENZOPYRANOPYRROLE AND BENZOPYRANOPYRIDINE ALPHA-1 ADRENERGIC COMPOUNDS” (Abbott Laboratories, priority 1996, dated 1998).
